Numbering of substitutions follows the chain as printed.
Experiments:
GLP-2R W340^5.36A = target: T1, GLP-2R W340^5.36A (Homo sapiens, UniProt O95838, W340A); experiment: radioligand competition binding, W340^5.36A; parameters: WT (1–553); expressed in transfected cells; conditions: COS-7, W340^5.36A; [^125I]GLP-2(1–33, M10Y) 10–15 pM, 4 h, 4 °C; mean ± SEM, n ≥ 3 in duplicate
T1 sequence (O95838 1-553 W340A): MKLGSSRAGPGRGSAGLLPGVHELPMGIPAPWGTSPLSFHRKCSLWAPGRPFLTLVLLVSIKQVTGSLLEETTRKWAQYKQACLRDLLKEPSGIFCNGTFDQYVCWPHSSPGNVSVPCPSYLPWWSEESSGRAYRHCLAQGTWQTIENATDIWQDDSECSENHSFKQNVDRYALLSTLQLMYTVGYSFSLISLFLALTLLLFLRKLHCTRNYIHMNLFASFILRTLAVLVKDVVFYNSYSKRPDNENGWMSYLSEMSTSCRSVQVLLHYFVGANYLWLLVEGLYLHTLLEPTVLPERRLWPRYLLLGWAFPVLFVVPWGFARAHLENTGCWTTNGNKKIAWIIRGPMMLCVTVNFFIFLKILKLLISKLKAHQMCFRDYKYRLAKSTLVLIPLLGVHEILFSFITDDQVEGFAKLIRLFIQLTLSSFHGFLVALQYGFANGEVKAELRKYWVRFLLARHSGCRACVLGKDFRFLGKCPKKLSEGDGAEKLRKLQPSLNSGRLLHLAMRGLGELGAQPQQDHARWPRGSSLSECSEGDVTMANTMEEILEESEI
Protocol: (§1) A stepwise oxidation reaction was performed by addition of 6 aliquots of 5 µL ChloramineT (30 µL/mL) with a 1-min interval during constant stirring. The reaction was terminated by the addition of 400 µL phase A (0.1% trifluoracetic acid) before being fractionated into 1 mL volume by reverse-phase high-performance liquid chromatography (RP-HPLC, Waters 600 SimiPrep system) on a C18 column. The iodinated protein was […] by increasing concentrations of phase B (Acetonitrile + 0.1% TFA) and tested for competitive binding ability.
(§2) One day before transfection, the COS-7 cells were seeded in 75 cm^2 culture flasks (3 million cells/flask) in DMEM, containing 3.9 g/L NaHCO3 and supplemented with 10% FBS, 1% L-glutamine, 180 units/mL penicillin and 45 µg/mL streptomycin. After an overnight culture at 37 °C, 10% CO2 and 95% air humidity, the cells were transiently transfected with different GLP-2R constructs or pcDNA3.1 vector as previously described.[52] Following 24-h incubation, the cells were transferred to Costa® microtiter plates (150,000 cells/well, PerkinElmer) to achieve a 5%–10% specific binding. […] The cells were then washed twice in binding buffer (4 °C), lysed and counted for radioactivity using a Wallac Gamma Counter (PerkinElmer).

GLP-2R N334^ECL2A = target: T2, GLP-2R N334^ECL2A (Homo sapiens, UniProt O95838, N334A); experiment: radioligand competition binding, N334^ECL2A; parameters: WT (1–553); expressed in transfected cells; host or cells: COS-7; conditions: COS-7, N334^ECL2 A; [^125I]GLP-2(1–33, M10Y) 10–15 pM, 4 h, 4 °C; mean ± SEM, n ≥ 3 in duplicate
T2 sequence (O95838 1-553 N334A): T1 sequence (O95838 1-553 W340A) with N334A, A340W
Protocol: as §1, §2

GLP-2R R344^5.40A = target: T3, GLP-2R R344^5.40A (Homo sapiens, UniProt O95838, R344A); experiment: radioligand competition binding, R344^5.40A; parameters: WT (1–553); expressed in transfected cells; host or cells: COS-7; conditions: COS-7, R344^5.40A; [^125I]GLP-2(1–33, M10Y) 10–15 pM, 4 h, 4 °C; mean ± SEM, n ≥ 3 in duplicate
T3 sequence (O95838 1-553 R344A): T1 sequence (O95838 1-553 W340A) with A340W, R344A
Protocol: as §1, §2

Compound	% Binding of WT (GLP-2R W340^5.36A) [%]	% Binding of WT (GLP-2R N334^ECL2A) [%]	% Binding of WT (GLP-2R R344^5.40A) [%]
CC[C@H](C)[C@H](NC(=O)[C@H](Cc1ccccc1)NC(=O)[C@H](CC(=O)O)NC(=O)[C@H](CCCNC(=N)N)NC(=O)[C@H](C)NC(=O)[C@H](C)NC(=O)[C@H](CC(C)C)NC(=O)[C@H](CC(N)=O)NC(=O)[C@H](CC(=O)O)NC(=O)[C@H](CC(C)C)NC(=O)[C@@H](NC(=O)[C@@H](NC(=O)[C@H](CC(N)=O)NC(=O)[C@H](CCSC)NC(=O)[C@H](CCC(=O)O)NC(=O)[C@H](CC(=O)O)NC(=O)[C@H](CO)NC(=O)[C@H](Cc1ccccc1)NC(=O)[C@H](CO)NC(=O)CNC(=O)[C@H](CC(=O)O)NC(=O)[C@H](C)NC(=O)[C@@H](N)Cc1c[nH]cn1)[C@@H](C)O)[C@@H](C)CC)C(=O)N[C@@H](CC(N)=O)C(=O)N[C@@H](Cc1c[nH]c2ccccc12)C(=O)N[C@@H](CC(C)C)C(=O)N[C@H](C(=O)N[C@@H](CCC(N)=O)C(=O)N[C@H](C(=O)N[C@@H](CCCCN)C(=O)N[C@H](C(=O)N[C@H](C(=O)N[C@@H](CC(=O)O)C(=O)O)[C@@H](C)O)[C@@H](C)CC)[C@@H](C)O)[C@@H](C)CC [Human GLP-2 (1–33)]	7.3 ± 0.6	2.4 ± 1.3	5.0 ± 0.8
CC[C@H](C)[C@H](NC(=O)[C@H](Cc1ccccc1)NC(=O)[C@H](CC(=O)O)NC(=O)[C@H](CCCNC(=N)N)NC(=O)[C@H](C)NC(=O)[C@H](C)NC(=O)[C@H](CC(C)C)NC(=O)[C@H](CC(N)=O)NC(=O)[C@H](CC(=O)O)NC(=O)[C@H](CC(C)C)NC(=O)[C@@H](NC(=O)[C@@H](NC(=O)[C@H](CC(N)=O)NC(=O)[C@H](CCSC)NC(=O)[C@H](CCC(=O)O)NC(=O)[C@H](CC(=O)O)NC(=O)[C@H](CO)NC(=O)[C@H](Cc1ccccc1)NC(=O)[C@H](CO)NC(=O)CNC(=O)[C@H](CC(=O)O)NC(=O)CNC(=O)[C@@H](N)Cc1c[nH]cn1)[C@@H](C)O)[C@@H](C)CC)C(=O)N[C@@H](CC(N)=O)C(=O)N[C@@H](Cc1c[nH]c2ccccc12)C(=O)N[C@@H](CC(C)C)C(=O)N[C@H](C(=O)N[C@@H](CCC(N)=O)C(=O)N[C@H](C(=O)N[C@@H](CCCCN)C(=O)N[C@H](C(=O)N[C@H](C(=O)N[C@@H](CC(=O)O)C(=O)O)[C@@H](C)O)[C@@H](C)CC)[C@@H](C)O)[C@@H](C)CC [Teduglutide]	8.6 ± 1.8	2.0 ± 2.1	3.5 ± 0.8

Source: publication PMC7785020, “A unique hormonal recognition feature of the human glucagon-like peptide-2 receptor” (Cell Research, 2020)
